For one data set, the system named is c-Src protein. The data set can be described thus: Src kinase phosphorylation of biotinylated cdc2 substrate, fluorescence (DELFIA). In kind it is biochemical, human. In a few lines:
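Recombinant human c-Src (SH3, SH2 and catalytic domains; baculovirus) phosphorylates biotinylated cdc2 substrate in 50 mM Tris, 10 mM MgCl2 with 10 μM ATP, 60 min at 30° C. Product captured on streptavidin and detected by Europium-anti-phosphotyrosine fluorescence (DELFIA). Reported as % inhibition of no-compound control.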

The next data set addresses T1, Aurora2 kinase (Homo sapiens, UniProt O14965).
T1 construct: A complete recombinant Aurora2 enzyme; His tag (N); made in house; host or cells: E. coli
T1 sequence (O14965 1-403): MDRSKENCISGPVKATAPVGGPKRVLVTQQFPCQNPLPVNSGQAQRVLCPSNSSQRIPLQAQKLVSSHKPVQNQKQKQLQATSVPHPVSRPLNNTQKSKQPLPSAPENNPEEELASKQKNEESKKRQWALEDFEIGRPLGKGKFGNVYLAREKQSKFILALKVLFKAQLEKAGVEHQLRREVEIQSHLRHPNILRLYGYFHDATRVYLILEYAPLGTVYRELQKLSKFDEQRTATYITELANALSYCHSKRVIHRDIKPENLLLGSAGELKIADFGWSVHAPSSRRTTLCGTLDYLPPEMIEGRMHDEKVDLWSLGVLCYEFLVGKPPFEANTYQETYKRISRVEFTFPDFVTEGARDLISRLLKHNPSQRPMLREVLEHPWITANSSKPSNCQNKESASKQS
The data set can be described thus: Aurora2 kinase radioactivity scintillation assay using nickel chelate (NuMA substrate). In kind it is biochemical. The note with it: 10 μM; read-out: Aurora2 % inhib at 10 μM. An outline of the steps:
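His-tagged full-length Aurora2 (0.02 μM, E. coli) phosphorylating His-tagged NuMA C-terminal fragment (0.5 μM) with 1 μM ATP plus [33P]-ATP, 30 min at 37 °C, pH 7.5 Tris buffer with MgCl2. Nickel-chelate scintillation read; percent inhibition versus no-compound control.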

Another data set concerns the target T2, human Tie2 (Homo sapiens, UniProt Q02763).
T2 construct: amino acids of the intracellular domain 776-1124; made in house; host or cells: baculovirus expression system (vector pFastBacGT)
As to the kind of experiment: Tie2 phosphorylation of PLC, FlashPlate radioactivity assay. The format is biochemical. To be noted: read-out: TIE2 % inhib at 10 μM. The procedure: The coding sequence of human Tie2 corresponding to the amino acids of the intracellular domain 776-1124 was generated by PCR using the cDNA isolated from human placenta as model. This sequence was introduced into a baculovirus expression vector pFastBacGT in the form of a GST fusion protein.
The inhibitory effect of the molecules is determined in an assay of phosphorylation of PLC by Tie2 in the presence of GST-Tie2 purified to approximately 80% homogeneity. The substrate is composed of the SH2-SH3 fragments of PLC exprressed in the form of a GST fusion protein.
The kinase activity of Tie2 is measured in a 20 mM MOPS buffer, pH 7.2, containing 10 mM MgCl2, 10 mM MnCl2, 1 mM DTT and 10 mM of glycerophosphate. A reaction mixture composed of 70 μl of kinase buffer containing 100 ng of GST-Tie2 enzyme per well is placed in a FlashPlate 96-well plate kept on ice. 10 μl of the test molecule diluted in DMSO at a maximum concentration of 10% are then added. For a given concentration, each measurement is carried out in quadruplicate. The reaction is initiated by adding 20 μl of solution containing 2 μg of GST-PLC, 2 μM of cold ATP and 1 μCi of ^33P[ATP]. After incubation for 1 hour at 37° C., the reaction is stopped by adding 1 volume (100 μl) of 200 mM EDTA. After removing the incubation buffer, the wells are washed three times with 300 μl of PBS. The radioactivity is measured on a Wallac MicroBeta 1450.
The inhibition of the Tie2 activity is calculated and expressed as percentage inhibition compared to the control activity determined in the absence of compound.

T2 sequence (Q02763 776-1124): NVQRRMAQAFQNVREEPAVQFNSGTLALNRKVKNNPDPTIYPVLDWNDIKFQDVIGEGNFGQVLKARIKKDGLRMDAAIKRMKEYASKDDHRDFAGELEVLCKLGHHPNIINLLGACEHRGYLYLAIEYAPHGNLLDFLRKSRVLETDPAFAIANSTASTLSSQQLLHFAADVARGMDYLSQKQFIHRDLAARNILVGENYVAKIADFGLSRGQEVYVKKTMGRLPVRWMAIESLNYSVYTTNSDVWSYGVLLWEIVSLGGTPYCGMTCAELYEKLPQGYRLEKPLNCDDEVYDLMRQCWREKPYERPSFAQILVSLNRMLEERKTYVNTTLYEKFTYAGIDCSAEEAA

As for `CS(=O)(=O)c1ccccc1S(=O)(=O)Nc1ccc2[nH]nc(-c3cccc(N)c3)c2c1` [Example 62, N-[3-(3-Aminophenyl)-1H-indazol-5-yl]-2-methylsulfonylbenzenesulfonamide], the melting point – broadly, the temperature, or range, at which the solid turns liquid – amounted to 220 °C. Further, the “SRC % inhib at 10 μM” value with c-Src protein was 95%. Besides, the inhibition at 10 µM at Aurora2 kinase was 100%.
On to `CS(=O)(=O)c1ccccc1S(=O)(=O)Nc1ccc2[nH]nc(-c3cc4ccccc4[nH]3)c2c1` [Example 61, N-[3-(1H-Indol-2-yl)-1H-indazol-5-yl]-2-methylsulfonylbenzenesulfonamide], for which the “SRC % inhib at 10 μM” value in the data set with c-Src protein stood at 99%. The inhibition at 10 µM at Aurora2 kinase came to 100%.
In the same order, the values of `O=S(=O)(Nc1ccc2[nH]nc(-c3ccccc3)c2c1)c1cccs1` [Example 110, N-(3-Phenyl-1H-indazol-5-yl)-thiophene-2-sulfonamide] are 45% and 100%.
For `O=S(=O)(Nc1ccc2[nH]nc(-c3ccccc3)c2c1)c1ccc(F)c(F)c1` [Example 152, 3,4-Difluoro-N-(3-phenyl-1H-indazol-5-yl)-benzenesulfonamide], in that order: 43% and 92%.
As to `O=S(=O)(Nc1ccc2[nH]nc(Cl)c2c1)c1cccc(F)c1` [Example 3, N-(3-Chloro-1H-indazol-5-yl)-3-fluorobenzenesulfonamide], the inhibition at 10 µM was 15% on human Tie2 and 46% at Aurora2 kinase.
Take `O=S(=O)(Nc1ccc2[nH]nc(-c3ccccc3)c2c1)c1ccccc1F` [Example 134, 2-Fluoro-N-(3-phenyl-1H-indazol-5-yl)-benzenesulfonamide]: the “SRC % inhib at 10 μM” value with c-Src protein is reported as 44%. For the same compound, the inhibition at 10 µM on Aurora2 kinase came to 100%.
For `Cc1cccc(S(=O)(=O)Nc2ccc3[nH]nc(-c4ccccc4)c3c2)c1` [Example 138, 3-Methyl-N-(3-phenyl-1H-indazol-5-yl)-benzenesulfonamide], in that order: 39% and 99%.
For `O=S(=O)(Nc1ccc2[nH]nc(-c3ccccc3)c2c1)c1ccccc1C(F)(F)F` [Example 109, N-(3-Phenyl-1H-indazol-5-yl)-2-trifluoromethylbenzene-sulfonamide], in that order: 42% and 100%.
In the same order, the values of `O=S(=O)(Nc1ccc2[nH]nc(-c3ccccc3)c2c1)c1ccc(Cl)s1` [Example 135, 5-Chloro-N-(3-phenyl-1H-indazol-5-yl)thiophene-2-sulfonamide] are 54% and 100%.
For the compound `COc1ccc(OC)c(S(=O)(=O)Nc2ccc3[nH]nc(-c4ccccc4)c3c2)c1` [Example 131, 2,5-Dimethoxy-N-(3-phenyl-1H-indazol-5-yl)-benzenesulfonamide], the “SRC % inhib at 10 μM” value in the data set with c-Src protein is given as 36%. The inhibition at 10 µM at Aurora2 kinase was found to be 97%.
As to `CN(C)c1ccc(-c2n[nH]c3ccc(NS(=O)(=O)c4ccccc4S(C)(=O)=O)cc23)cc1` [Example 63, N-[3-(4-Dimethylaminophenyl)-1H-indazol-5-yl]-2-methylsulfonylbenzenesulfonamide], the “SRC % inhib at 10 μM” value with c-Src protein is listed as 46%. For the same compound, the inhibition at 10 µM on Aurora2 kinase came to 100%.
Regarding `CS(=O)(=O)c1ccccc1S(=O)(=O)Nc1ccc2[nH]nc(Cl)c2c1` [Example 1, N-(3-Chloro-1H-indazol-5-yl)-2-methylsulfonylbenzenesulfonamide], the inhibition at 10 µM on human Tie2 was found to be 18%; at Aurora2 kinase, 86%.
Take `O=S(=O)(Nc1ccc2[nH]nc(-c3ccccc3)c2c1)c1cc(F)cc(F)c1` [Example 158, 3,5-Difluoro-N-(3-phenyl-1H-indazol-5-yl)-benzenesulfonamide]: the “SRC % inhib at 10 μM” value in the data set on c-Src protein was found to be 75%. In addition, the inhibition at 10 µM at Aurora2 kinase was 100%.
With `Cc1n[nH]c2ccc(NS(=O)(=O)c3cccc(F)c3)cc12` [Example 9, 3-Fluoro-N-(3-methyl-1H-indazol-5-yl)benzenesulfonamide], the melting point came out at 120 °C. Further, the inhibition at 10 µM at human Tie2 came to 29%. In addition, at Aurora2 kinase, the inhibition at 10 µM worked out at 61%.
For `CS(=O)(=O)c1ccccc1S(=O)(=O)Nc1ccc2[nH]nc(-c3nc4ccccc4[nH]3)c2c1` [Example 81, N-[3-(1H-Benzimidazol-2-yl)-1H-indazol-5-yl]-2-methylsulfonylbenzenesulfonamide], the “SRC % inhib at 10 μM” value in the data set on c-Src protein came to 100%. Further, the inhibition at 10 µM at Aurora2 kinase came out at 100%.
As to `CS(=O)(=O)c1ccccc1S(=O)(=O)Nc1ccc2[nH]nc(-c3ccc(Cl)cc3)c2c1` [Example 30, N-[3-(4-Chlorophenyl)-1H-indazol-5-yl]-2-methylsulfonylbenzenesulfonamide], the melting point is 242 °C. The “SRC % inhib at 10 μM” value in the data set on c-Src protein came out at 72%. The inhibition at 10 µM at Aurora2 kinase came out at 100%.
Consider `Cc1n[nH]c2ccc(NS(=O)(=O)c3ccccc3S(C)(=O)=O)cc12` [Example 10, 2-Methylsulfonyl-N-(3-methyl-1H-indazol-5-yl)benzenesulfonamide], for which the figures for the inhibition at 10 µM at human Tie2 and at Aurora2 kinase were 33% and 90%, respectively.
Consider `O=C(O)c1cccc(S(=O)(=O)Nc2ccc3[nH]nc(-c4ccccc4)c3c2)c1` [Example 133, 3-(3-Phenyl-1H-indazol-5-ylsulfamoyl)benzoic acid], for which the “SRC % inhib at 10 μM” value in the data set on c-Src protein was 24%. In addition, the inhibition at 10 µM on Aurora2 kinase is 67%.
In the same order, the values of `O=[N+]([O-])c1ccccc1S(=O)(=O)Nc1ccc2[nH]nc(-c3ccccc3)c2c1` [Example 113, 2-Nitro-N-(3-phenyl-1H-indazol-5-yl)benzenesulfonamide] are 23% and 100%.
As to `CS(=O)(=O)c1ccccc1S(=O)(=O)Nc1ccc2[nH]nc(-c3ccc[nH]3)c2c1` [Example 60, 2-Methylsulfonyl-N-[3-(1H-pyrrol-2-yl)-1H-indazol-5-yl]benzenesulfonamide], the melting point came out at 255 °C. Also, the “SRC % inhib at 10 μM” value in the data set on c-Src protein is reported as 98%. Besides, on Aurora2 kinase, the inhibition at 10 µM came to 100%.
`CS(=O)(=O)c1ccccc1S(=O)(=O)Nc1ccc2[nH]ncc2c1` [Example 13, 2-Methylsulfonyl-N-(1H-indazol-5-yl)benzenesulfonamide] yielded a melting point of 245 °C. Further, the inhibition at 10 µM on human Tie2 turned out to be 22%. On Aurora2 kinase, the inhibition at 10 µM worked out at 76%.
`O=S(=O)(Nc1ccc2[nH]nc(-c3ccccc3)c2c1)c1ccccc1` [Example 112, N-(3-Phenyl-1H-indazol-5-yl)benzenesulfonamide]: the “SRC % inhib at 10 μM” value in the data set on c-Src protein stood at 47%. Further, at Aurora2 kinase, the inhibition at 10 µM stood at 100%.
As to `CS(=O)(=O)c1ccccc1S(=O)(=O)Nc1ccc2[nH]nc(-c3cc4ccccc4s3)c2c1` [Example 65, N-(3-Benzo[b]thiophen-2-yl-1H-indazol-5-yl)-2-methylsulfonylbenzenesulfonamide], the melting point stood at 270 °C. In the data set on c-Src protein, the “SRC % inhib at 10 μM” value was 96%. Besides, the inhibition at 10 µM on Aurora2 kinase came out at 100%.
As for `N#Cc1cccc(S(=O)(=O)Nc2ccc3[nH]nc(-c4ccccc4)c3c2)c1` [Example 154, 3-Cyano-N-(3-phenyl-1H-indazol-5-yl)-benzenesulfonamide], in the data set with c-Src protein, the “SRC % inhib at 10 μM” value came out at 44%. The inhibition at 10 µM at Aurora2 kinase came to 95%.
For `O=S(=O)(Nc1ccc2[nH]nc(-c3ccccc3)c2c1)c1ccc(F)cc1` [Example 117, 4-Fluoro-N-(3-phenyl-1H-indazol-5-yl)-benzenesulfonamide], in that order: 39% and 100%.
For `Cc1ccccc1S(=O)(=O)Nc1ccc2[nH]nc(-c3ccccc3)c2c1` [Example 132, 2-Methyl-N-(3-phenyl-1H-indazol-5-yl)-benzenesulfonamide], in that order: 18% and 100%.

Values taken from US6858638B2, “Substituted indazoles, compositions containing them, method of production and use” (Aventis Pharma S.A., priority 2002, dated 2005).
